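Method: 48-hour compound exposure of cells in 96-well plates, five concentrations, linear interpolation of endpoints. GI50 = concentration required for 50% inhibition of growth.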 The source made the active and inactive calls. Rule as the data show it: active = GI50 up to about 1.1 µM and inactive = higher.
How the values were obtained:
Experiment in all cases: NCI-60 cell line screen, 48 h
SR = system: SR
SN12C = system: SN12C
HCC 2998 = system: HCC 2998
U-251 = system: U-251
OVCAR-4 = system: OVCAR-4
SK-OV-3 = system: SK-OV-3
MDA-N = system: MDA-N
SK-MEL-5 = system: SK-MEL-5
T47D = system: T47D
UACC-257 = system: UACC-257
K562 = system: K562
Hs-578T = system: Hs-578T
M14 = system: M14
UACC-62 = system: UACC-62
CCRF-CEM = system: CCRF-CEM
RPMI-8226 = system: RPMI-8226
A549 = system: A549
NCI/ADR-RES = system: NCI/ADR-RES
OVCAR-5 = system: OVCAR-5

Compound | GI50 (SR) | GI50 (SN12C) | GI50 (HCC 2998) | GI50 (U-251) | GI50 (OVCAR-4) | GI50 (SK-OV-3) | GI50 (MDA-N) | GI50 (SK-MEL-5) | GI50 (T47D) | GI50 (UACC-257) | GI50 (K562) | GI50 (Hs-578T) | GI50 (M14) | GI50 (UACC-62) | GI50 (CCRF-CEM) | GI50 (RPMI-8226) | GI50 (A549) | GI50 (NCI/ADR-RES) | GI50 (OVCAR-5)
CC(C)OC(=O)c1ccc(NCc2cc(O)ccc2O)cc1 | 1.06 µM (active) | 1.71 µM (inactive) | 11.1 µM (inactive) | 4.32 µM (inactive) | 5.05 µM (inactive) | 17.3 µM (inactive) | 2.52 µM (inactive) | 3.29 µM (inactive) | 2.18 µM (inactive) | 10.3 µM (inactive) | 0.946 µM (active) | 2.04 µM (inactive) | 6.84 µM (inactive) | 10.6 µM (inactive) | 0.27 µM (active) | 0.483 µM (active) | 7.48 µM (inactive) | 1.95 µM (inactive) | 10.4 µM (inactive)
COc1cc(C(=O)N(Cc2cccnc2)C(=S)N(Cc2cccnc2)C(=O)c2cc(OC)c(OC)c(OC)c2)cc(OC)c1OC | 48.3 µM (inactive) | 37.9 µM (inactive) | 24.3 µM (inactive) |  | 17.8 µM (inactive) | > 100 µM (inactive) | 36 µM (inactive) | 76.9 µM (inactive) | 34.9 µM (inactive) | 70 µM (inactive) | 52 µM (inactive) | > 100 µM (inactive) | 94.8 µM (inactive) | 31.6 µM (inactive) | 30.3 µM (inactive) | 56.6 µM (inactive) | > 100 µM (inactive) | > 100 µM (inactive) | > 100 µM (inactive)
CCOC(=O)C(=O)C(/C(=N/N(C)C)C(=O)Nc1ccc(C)cc1C)c1nc2ccccc2nc1O (stereo not drawn) | > 100 µM (inactive) | > 100 µM (inactive) | > 100 µM (inactive) | > 100 µM (inactive) | > 100 µM (inactive) | > 100 µM (inactive) | > 100 µM (inactive) | > 100 µM (inactive) | > 100 µM (inactive) | > 100 µM (inactive) | > 100 µM (inactive) | > 100 µM (inactive) | > 100 µM (inactive) | > 100 µM (inactive) | > 100 µM (inactive) | > 100 µM (inactive) | > 100 µM (inactive) | > 100 µM (inactive) | > 100 µM (inactive)
O=C1CC(c2ccccc2)NCCCCN2CC(CN1)C(C(O)c1ccccc1)C2=O (stereo not drawn) | > 100 µM (inactive) | > 100 µM (inactive) | > 100 µM (inactive) | > 100 µM (inactive) | > 100 µM (inactive) | > 100 µM (inactive) | > 100 µM (inactive) | > 100 µM (inactive) | > 100 µM (inactive) | > 100 µM (inactive) |  | > 100 µM (inactive) | > 100 µM (inactive) | > 100 µM (inactive) | > 100 µM (inactive) |  | > 100 µM (inactive) | > 100 µM (inactive) | > 100 µM (inactive)
CCOC(=O)C(=CNc1ccc(N(C2=NCC(C)S2)c2ccc(F)c(Cl)c2)cc1)C(=O)OCC (stereo not drawn) | 21.8 µM (inactive) | 17.9 µM (inactive) | 15.2 µM (inactive) | 20.8 µM (inactive) | 24.8 µM (inactive) | 21.9 µM (inactive) | 21.2 µM (inactive) | 18.7 µM (inactive) | 13.9 µM (inactive) | 17.1 µM (inactive) | 44.1 µM (inactive) | 22.8 µM (inactive) | 18.9 µM (inactive) |  | 7.93 µM (inactive) | 21.3 µM (inactive) | 27 µM (inactive) | 17.1 µM (inactive) | 19.6 µM (inactive)
CC(=O)Nc1ccc2c(C)c3c(nc2n1)[nH]c1ccccc13 | 17.6 µM (inactive) | 30.5 µM (inactive) | 33 µM (inactive) | 32.4 µM (inactive) | 38.7 µM (inactive) |  | 18.1 µM (inactive) | 14.9 µM (inactive) | 13.3 µM (inactive) | 32.9 µM (inactive) | 35.5 µM (inactive) | 19.8 µM (inactive) | 25.4 µM (inactive) | 22.6 µM (inactive) | 30.6 µM (inactive) | 27.2 µM (inactive) | 41.1 µM (inactive) | 22.1 µM (inactive) | 51.4 µM (inactive)
COc1ccc(C)cc1Nc1nnc(-c2ccccc2N)s1 | 13.4 µM (inactive) | 32 µM (inactive) | 30 µM (inactive) |  | 26.1 µM (inactive) | > 100 µM (inactive) | 28.9 µM (inactive) | 13.7 µM (inactive) | 49.2 µM (inactive) | 37.3 µM (inactive) | 13.7 µM (inactive) | 36.2 µM (inactive) | 40.2 µM (inactive) | 37.3 µM (inactive) | 32.3 µM (inactive) | 18.1 µM (inactive) | 47.4 µM (inactive) | 34.8 µM (inactive) | 89.9 µM (inactive)
Cc1nc(C)c(N2CCN([N+](=O)[O-])CC2)c(O)n1 | > 100 µM (inactive) | > 100 µM (inactive) | > 100 µM (inactive) | > 100 µM (inactive) | > 100 µM (inactive) | > 100 µM (inactive) | > 100 µM (inactive) | > 100 µM (inactive) | > 100 µM (inactive) | > 100 µM (inactive) | > 100 µM (inactive) | > 100 µM (inactive) | > 100 µM (inactive) | > 100 µM (inactive) | > 100 µM (inactive) | > 100 µM (inactive) | > 100 µM (inactive) | > 100 µM (inactive) | 
CC1OC2OC3C(OCC(O)C3O)OC(=O)[C@]34CCC(C)(C)CC3C3=CCC5[C@@]6(C)C[C@H](O)[C@H](OC7OC(CO)C(O)C(O)C7OC7OC(COC(=O)CC(C)(O)CC(=O)OC1C(OC1OC(CO)C(O)C(O)C1O)C2O)C(O)C(O)C7O)[C@@](C)(CO)C6CC[C@@]5(C)[C@]3(C)CC4 (stereo partly drawn) | 3.66 µM (inactive) | 4.98 µM (inactive) | 1.42 µM (inactive) | 2.9 µM (inactive) | 5.16 µM (inactive) | 12.2 µM (inactive) | 1.44 µM (inactive) | 0.137 µM (active) | 3.34 µM (inactive) | 1.64 µM (inactive) |  | 8 µM (inactive) | 2.51 µM (inactive) | 1.64 µM (inactive) | 4.18 µM (inactive) | 2.51 µM (inactive) | 0.14 µM (active) | 3.15 µM (inactive) | 2.01 µM (inactive)
O=c1[nH]cnc2c1ncn2[C@@H]1C[C@@H]1CO | > 100 µM (inactive) | > 100 µM (inactive) | > 100 µM (inactive) | > 100 µM (inactive) | > 100 µM (inactive) |  | > 100 µM (inactive) | > 100 µM (inactive) | > 100 µM (inactive) | > 100 µM (inactive) | > 100 µM (inactive) | 6.22 µM (inactive) | > 100 µM (inactive) | > 100 µM (inactive) | > 100 µM (inactive) | > 10 µM (inactive) | > 100 µM (inactive) | > 100 µM (inactive) | > 100 µM (inactive)
COC(=O)/C=C\C(C#N)(C#N)/N=C/c1ccsc1 | 0.214 µM (active) | 5.33 µM (inactive) | 16.1 µM (inactive) | 15.8 µM (inactive) | 18.5 µM (inactive) | 17.2 µM (inactive) | 3.83 µM (inactive) | 4.66 µM (inactive) | 1.86 µM (inactive) | 4.45 µM (inactive) | 0.525 µM (active) | 10.6 µM (inactive) | 2.45 µM (inactive) | 4.8 µM (inactive) | 0.216 µM (active) | 1.25 µM (inactive) | 17.7 µM (inactive) | 2.54 µM (inactive) | 7.24 µM (inactive)
Nc1ncnc2c1ncn2C1OC(COP(=O)(O)CP(=O)(O)O)C(O)C1O (stereo not drawn) | > 100 µM (inactive) | > 100 µM (inactive) | > 100 µM (inactive) | > 100 µM (inactive) |  | > 100 µM (inactive) | > 100 µM (inactive) | > 100 µM (inactive) | > 100 µM (inactive) | > 100 µM (inactive) | > 100 µM (inactive) | > 100 µM (inactive) | > 100 µM (inactive) | > 100 µM (inactive) | > 100 µM (inactive) | > 100 µM (inactive) | > 100 µM (inactive) | > 100 µM (inactive) | > 100 µM (inactive)
CC(C)C[C@H](NC(=O)CCc1ccccc1)B(O)O | 2.72 µM (inactive) | 16.8 µM (inactive) | 13.7 µM (inactive) | 31.4 µM (inactive) | 36.5 µM (inactive) |  | 2.49 µM (inactive) | 8.45 µM (inactive) | 18.7 µM (inactive) | 12.5 µM (inactive) | 17.6 µM (inactive) | 5.78 µM (inactive) | 12.1 µM (inactive) | 14.8 µM (inactive) | 2.33 µM (inactive) | 2.24 µM (inactive) | 35.4 µM (inactive) | 22.7 µM (inactive) | 13.6 µM (inactive)
COc1cccc(-c2c(C#N)c(N)nc3c2CCS(=O)(=O)c2ccc(C)cc2-3)c1 | 40.6 µM (inactive) | > 100 µM (inactive) | 78.2 µM (inactive) | > 100 µM (inactive) | 95.5 µM (inactive) |  | > 100 µM (inactive) | > 100 µM (inactive) | > 100 µM (inactive) | 65.2 µM (inactive) | > 100 µM (inactive) | > 100 µM (inactive) | > 100 µM (inactive) | > 100 µM (inactive) | > 100 µM (inactive) | > 100 µM (inactive) | > 100 µM (inactive) | > 100 µM (inactive) | > 100 µM (inactive)
O=C1OC(c2ccc(O)c(Cl)c2)(c2ccc(O)c(Cl)c2)c2ccc(Br)c3cccc1c23.O=C1OC(c2ccc(O)c(Cl)c2)(c2ccc(O)c(Cl)c2)c2cccc3c(Br)ccc1c23 | 21.2 µM (inactive) | 15 µM (inactive) | 19.3 µM (inactive) | 20.1 µM (inactive) | 2.67 µM (inactive) | 17.2 µM (inactive) | 21 µM (inactive) | 17.5 µM (inactive) | 2.9 µM (inactive) | 19.5 µM (inactive) | 22.7 µM (inactive) | 29.3 µM (inactive) | 28.8 µM (inactive) | 12.4 µM (inactive) | 16.9 µM (inactive) | 16.9 µM (inactive) | 18.8 µM (inactive) | 16.6 µM (inactive) | 20.7 µM (inactive)

Source: ChEMBL document CHEMBL1201862, “PubChem BioAssay data set” (2004)
